Experimental data reported in US12459951B2, “Compounds that interact with RAS superfamily proteins for treatment of cancers, inflammatory diseases, rasopathies, and fibrotic disease” (SHY Therapeutics, LLC, priority 2022, dated 2025).
Read-outs that look alike come from different tables or passages of the source.

Tests used:
[1] = Mouse Liver Microsome Metabolic Stability Assay; type: in vitro ADME; details: pH 7.4, Mouse liver microsomes, 37° C., NADPH, read-out: t½
Summary of the method: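 Compounds (2 μM, 1.6% solvent) incubated at 37 °C with mouse liver microsomes (0.42 mg/mL) in 100 mM phosphate pH 7.4 with an NADPH-regenerating system; five time points over 40 min, duplicates, LC-MS/MS. kel, t1/2 and Clint from linear regression of ln(AUC) vs. time; no-NADPH controls.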

[2] = tested on: BT-549 (expressing wild type KRAS); experiment: Proliferation Assay (Cell Viability Assay); type: cell-based; details: Homo sapiens
Summary of the method: (§1)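 Cells plated at 2000–5000/well overnight, then treated 2–4 days at 37 °C, 5% CO2 with compound at 10 μM single dose or serial dilutions for IC50, in 0.3% DMSO and 10% FBS. Viability read by CellTiter 96 Aqueous One (MTS); % proliferation inhibition calculated from raw data.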

A375 (wild type Kras) = experiment: Proliferation Assay (Cell Viability Assay); type: cell-based; details: Homo sapiens, A-375
Summary of the method: as §1

[3] = tested on: MM.1R (expressing wild type KRAS); experiment: Proliferation Assay (Cell Viability Assay); type: cell-based; details: Homo sapiens, read-out: MM.1R IC50 (nM) Multiple Myloma
Summary of the method: as §1

[4] = tested on: GP2d (expressing KRas G12D mutant); experiment: Proliferation Assay (Cell Viability Assay); type: cell-based; details: Homo sapiens
Summary of the method: as §1

[5] = tested on: NCI-H358 (expressing KRas G12C mutant); experiment: Proliferation Assay (Cell Viability Assay); type: cell-based; details: Homo sapiens
Summary of the method: as §1

[6] = tested on: SW-620 (expressing KRas G12V mutant); experiment: Proliferation Assay (Cell Viability Assay); type: cell-based; details: Homo sapiens, SW-620, colon
Description: (§2) Cell lines: Human tumor-derived cell lines were purchased from American Type Culture Collection. Human tumor-derived pancreatic cancer cell line MiaPaca-2 (expressing KRAS G12C mutant) and Panc-1 (expressing KRas G12D mutant), and Human non-small cell lung cancer (NSCLC) cell line A549 (expressing KRas G12S mutant) were grown in complete DMEM-High Glucose medium. Human colon cancer cell line SW-620 (expressing KRas G12V mutant) was grown in RPMI 1640 medium. All cell lines were supplemented with penicillin (100 U/mL), streptomycin (100 μg/mL), and 10% heat-inactivated FBS at 37° C. in a humidified incubator with 5% CO2.
(§3) Method: Cells were plated at 2000 to 5000 cells/well density in 96-wells plate and cultured overnight. Small molecules to be tested were added to the cells in the final concentration of 10 μM in the presence of 0.3% DMSO and 10% FBS and incubated for 2-4 days at 37° C. in a humidified incubator with 5% CO2. For IC50 value determination, serial dilutions of compounds were added to cells under the same conditions.
(§4) Assay: At the end of the incubation period, cell viability was determined using the CellTiter 96® Aqueous One Solution Cell Proliferation Assay according to manufacturer specifications (Promega, Madison, WI). The percentage of small molecules inhibition of cellular proliferation was calculated from raw data.
(§5) Cell lines: these Human tumor-derived cell lines were purchased from American Type Culture Collection. Human tumor-derived pancreatic cancer cell line MiaPaca-2 (expressing KRAS G12C mutant) and Panc-1 (expressing KRas G12D mutant), and Human non-small cell lung cancer (NSCLC) cell line A549 (expressing KRas G12S mutant), and Human melanoma cell line A375 (wild type Kras) were grown in complete DMEM-High Glucose medium. Human tumor-derived pancreatic cancer cell lines SU86.86 (expressing KRas G12D mutant), BxPC3 (expressing wild type K-Ras), and Human non-small cell lung cancer (NSCLC) cell lines NCI-H441 (expressing KRas G12S mutant), NCI-H1975 (expressing wild type KRas), NCI-H358 (expressing KRas G12C mutant), NCI-H1299 (expressing NRas Q61H mutant), and Human colon cancer cell line SW-620 (expressing KRas G12V mutant), Human triple negative breast cancer cell line HCC-1806 (expressing wild type KRas), and Human tumor-derived multiple myeloma cell line MM.1R (expressing wild type KRAS), were grown in RPMI 1640 medium. Human tumor-derived breast cancer cell line BT-549 (expressing wild type KRAS) was grown in RPMI 1640 medium in the presence of 11.8U insulin. Human tumor-derived pancreatic cancer cell line HPAF-II (expressing KRas G12D mutant), Human triple negative breast cancer cell line BT-20 (expressing wild type KRas), and Human colon cancer cell line LS123 (expressing KRas G12S mutant), were grown in EMEM medium. Human tumor-derived pancreatic cancer cell line CF-PAC1 (expressing KRas G12V mutant) was frown in IMDM medium, and Human colon cancer cell line HT29 (expressing wild type KRas) was grown in McCoy's 5A medium. The colon cancer cell line GP2d (expressing KRas G12D mutant) was purchased from MilliporeSigma and grown in DMEM-High Glucose medium. All cell lines were supplemented with penicillin (100 U/mL), streptomycin (100 μg/mL), and 10% heat-inactivated FBS at 37° C. in a humidified incubator with 5% CO2.
as §3, with “that were” for “to be”, “FBS,” for “FBS”

[7] = tested on: Panc-1 (expressing KRas G12D mutant); experiment: Proliferation Assay (Cell Viability Assay); type: cell-based; details: Homo sapiens, Panc1, pancreatic
Description: as §2, §3, §4, §5
as §3, with “that were” for “to be”, “FBS,” for “FBS”

[8] = tested on: A549 (expressing KRas G12S mutant); experiment: Proliferation Assay (Cell Viability Assay); type: cell-based; details: Homo sapiens, A549, NSCLC
Description: as §2, §3, §4, §5
as §3, with “that were” for “to be”, “FBS,” for “FBS”

[9] = BT-549, Proliferation assay, BT549, read-out: BT549 IC50 (nM) TNBC
[10] = Proliferation assay, A375, read-out: A375 IC50 (nM) Melanoma
[11] = Proliferation assay, read-out: GP2d IC50 (nM) Colorectal
[12] = Proliferation assay, NCI-H358, read-out: NCI-H358 IC50 (nM) NSCLC

Row | Compound | half-life at 2 µM [1] [min] | IC50 [2, 9] [nM] | IC50 (A375 (wild type Kras); [10]) [nM] | IC50 [3] [nM] | IC50 [5, 12] [nM] | IC50 [4, 11] [nM] | also measured
1 | Cc1c(-c2ccn(C)n2)cn2nc(-c3nccn3C)nc(Nc3cc(-c4ccccn4)ccn3)c12 [Compound 248, N-([2,4′-Bipyridin]-2′-yl)-5-methyl-2-(1-methyl-1H-imidazol-2-yl)-6-(1-methyl-1H-pyrazol-3-yl)pyrrolo[2,1-f][1,2,4]triazin-4-amine] | > 10 |  |  |  |  |  | 
2 | COc1ccnc(Nc2nc(-c3nccn3C)nn3cc(-c4ccn(C(C)C)n4)c(C)c23)c1 [Compound 58, 6-(1-Isopropyl-1H-pyrazol-3-yl)-N-(4-methoxypyridin-2-yl)-5-methyl-2-(1-methyl-1H-imidazol-2-yl)pyrrolo[2,1-f][1,2,4]triazin-4-amine] |  | 1 to 10 | 1 to 10 | < 1 | 10 to 50 | 10 to 50 | IC50 ([2]; BT-549, Breast (TNBC), KRas WT, read-out: Proliferation assay IC50): < 150 nM; IC50 (A375 (wild type Kras); A375, melanoma, KRas WT, read-out: Proliferation assay IC50): < 150 nM; IC50 ([4]; colon, KRas G12D, read-out: Proliferation assay IC50): < 150 nM; IC50 ([5]; NCI-H358, NSCLC, KRas G12C, read-out: Proliferation assay IC50): < 150 nM; IC50 [6]: < 0.15 µM; IC50 [7]: < 0.15 µM; IC50 [8]: < 0.15 µM
3 | Cc1c(-c2ccn(C)n2)cn2nc(-c3nccn3C)nc(Nc3cc(-c4cccnc4)ccn3)c12 [Compound 250, N-([3,4′-Bipyridin]-2′-yl)-5-methyl-2-(1-methyl-1H-imidazol-2-yl)-6-(1-methyl-1H-pyrazol-3-yl)pyrrolo[2,1-f][1,2,4]triazin-4-amine] | < 10 |  |  |  |  |  | 
4 | Cc1[nH]nc(Nc2nc(-c3nccn3C)nn3cc(-c4ccn(C)n4)c(C)c23)c1C [Compound 267, N-(4,5-Dimethyl-1H-pyrazol-3-yl)-5-methyl-2-(1-methyl-1H-imidazol-2-yl)-6-(1-methyl-1H-pyrazol-3-yl)pyrrolo[2,1-f][1,2,4]triazin-4-amine] | > 10 | 10 to 50 | 1 to 10 | < 1 | 1 to 10 | 1 to 10 | 
5 | Cc1c(-c2ccn(C)n2)cn2nc(-c3nccn3C)nc(Nc3cc(-c4ccccn4)[nH]n3)c12 [Compound 265, 5-Methyl-2-(1-methyl-1H-imidazol-2-yl)-6-(1-methyl-1H-pyrazol-3-yl)-N-(5-(pyridin-2-yl)-1H-pyrazol-3-yl)pyrrolo[2,1-f][1,2,4]triazin-4-amine] | > 10 |  |  |  |  |  | 

Now from value to molecule, other results behind:

Row | half-life at 2 µM [1] [min] | IC50 [2, 9] [nM] | IC50 (A375 (wild type Kras); [10]) [nM] | IC50 [3] [nM] | IC50 [5, 12] [nM] | Compound | IC50 [4, 11] [nM] | also measured
6 | < 10 |  |  |  |  | Cc1c(-c2ccn(C)n2)cn2nc(-c3nccn3C)nc(Nc3cc(C(C)C)[nH]n3)c12 [Compound 268, N-(5-Isopropyl-1H-pyrazol-3-yl)-5-methyl-2-(1-methyl-1H-imidazol-2-yl)-6-(1-methyl-1H-pyrazol-3-yl)pyrrolo[2,1-f][1,2,4]triazin-4-amine] |  | 
7 | < 10 |  |  |  |  | CCOc1cc(Nc2nc(-c3nccn3C)nn3cc(-c4ccn(C)n4)c(C)c23)n[nH]1 [Compound 260, N-(5-Ethoxy-1H-pyrazol-3-yl)-5-methyl-2-(1-methyl-1H-imidazol-2-yl)-6-(1-methyl-1H-pyrazol-3-yl)pyrrolo[2,1-f][1,2,4]triazin-4-amine] |  | 
8 | > 10 | 1 to 10 | 10 to 50 | < 1 | 1 to 10 | Cc1cc(Nc2nc(-c3nccn3C)nn3cc(-c4ccn(C)n4)c(C)c23)n[nH]1 [Compound 255, 5-Methyl-2-(1-methyl-1H-imidazol-2-yl)-6-(1-methyl-1H-pyrazol-3-yl)-N-(5-methyl-1H-pyrazol-3-yl)pyrrolo[2,1-f][1,2,4]triazin-4-amine] | 1 to 10 | 
9 | < 10 | 10 to 50 | > 50 | < 1 | 1 to 10 | COc1cc(Nc2nc(-c3nccn3C)nn3cc(-c4ccn(C)n4)c(C)c23)n[nH]1 [Compound 252, N-(5-Methoxy-1H-pyrazol-3-yl)-5-methyl-2-(1-methyl-1H-imidazol-2-yl)-6-(1-methyl-1H-pyrazol-3-yl)pyrrolo[2,1-f][1,2,4]triazin-4-amine] | 1 to 10 | 
